Source: PubChem BioAssay AID1918948 (Molecular Pharmacology Branch, DTP, NCI, 2023)

System: K-562 leukemia growth, % test/control
Assay: Anticancer human tumor K-562 cell line growth inhibition;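 further: spheroids exposed to compounds for 7 days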;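 on viability, T/C: 100% = DMSO vehicle wells and lower values mean fewer viable cells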
Details: spheroids with HUVEC and MSC; for IC50: curve of first compound; for viability, T/C: stronger effect = lower value
Summary of the method: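 Drug combinations with the LSD1 inhibitor iadademstat tested on tumor cells co-cultured as spheroids with endothelial cells and mesenchymal stem cells. Concentrations descended in half-log increments from clinical Cmax or 10 microM.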

[1] = second compound 0.1 µM, first compound 0.00949 µM
[2] = second compound 0.1 µM, first compound 0.03 µM
[3] = second compound 0.1 µM, first compound 0.0949 µM
[4] = second compound 0.1 µM, first compound 0.3 µM
[5] = second compound 0.1 µM, first compound 0.949 µM
[6] = second compound 0.1 µM, first compound 3 µM
[7] = second compound 0.316 µM, first compound 0.00949 µM
[8] = second compound 0.316 µM, first compound 0.03 µM
[9] = second compound 0.316 µM, first compound 0.0949 µM
[10] = second compound 0.316 µM, first compound 0.3 µM
[11] = second compound 0.316 µM, first compound 0.949 µM
[12] = second compound 0.316 µM, first compound 3 µM
[13] = second compound 1 µM, first compound 0.00949 µM
[14] = second compound 1 µM, first compound 0.03 µM
[15] = second compound 1 µM, first compound 0.0949 µM
[16] = second compound 1 µM, first compound 0.3 µM
[17] = second compound 1 µM, first compound 0.949 µM
[18] = second compound 1 µM, first compound 3 µM
[19] = second compound 3.16 µM, first compound 0.00949 µM
[20] = second compound 3.16 µM, first compound 0.03 µM
[21] = second compound 3.16 µM, first compound 0.0949 µM
[22] = second compound 3.16 µM, first compound 0.3 µM
[23] = second compound 3.16 µM, first compound 0.949 µM
[24] = second compound 3.16 µM, first compound 3 µM
[25] = second compound 10 µM, first compound 0.00949 µM
[26] = second compound 10 µM, first compound 0.03 µM
[27] = second compound 10 µM, first compound 0.0949 µM
[28] = second compound 10 µM, first compound 0.3 µM
[29] = second compound 10 µM, first compound 0.949 µM
[30] = second compound 10 µM, first compound 3 µM

COc1cc(Nc2ncc3c(n2)-c2ccc(Cl)cc2C(c2c(F)cccc2OC)=NC3)ccc1C(=O)O + NC1CCC(NC2CC2c2ccccc2)CC1
IC50 (second compound 0.1 µM): 3.23 nM | IC50 (second compound 0.316 µM): 3.86 nM | IC50 (second compound 1 µM): 3.25 nM | IC50 (second compound 3.16 µM): 3.29 nM | IC50 (second compound 10 µM): < 3.16 nM | viability, T/C (second compound 0.1 µM, first compound 0.00316 µM): 51% | viability, T/C (second compound 0.1 µM, first compound 0.01 µM): 21.1% | viability, T/C (second compound 0.1 µM, first compound 0.0316 µM): 20.4% | viability, T/C (second compound 0.1 µM, first compound 0.1 µM): 17.8% | viability, T/C (second compound 0.1 µM, first compound 0.316 µM): 14.6% | viability, T/C (second compound 0.1 µM, first compound 1 µM): 10.7% | viability, T/C (second compound 0.316 µM, first compound 0.00316 µM): 55.8% | viability, T/C (second compound 0.316 µM, first compound 0.01 µM): 22.6% | viability, T/C (second compound 0.316 µM, first compound 0.0316 µM): 22% | viability, T/C (second compound 0.316 µM, first compound 0.1 µM): 19.3% | viability, T/C (second compound 0.316 µM, first compound 0.316 µM): 13.9% | viability, T/C (second compound 0.316 µM, first compound 1 µM): 11.1% | viability, T/C (second compound 1 µM, first compound 0.00316 µM): 51.4% | viability, T/C (second compound 1 µM, first compound 0.01 µM): 21% | viability, T/C (second compound 1 µM, first compound 0.0316 µM): 23.4% | viability, T/C (second compound 1 µM, first compound 0.1 µM): 16.7% | viability, T/C (second compound 1 µM, first compound 0.316 µM): 13.1% | viability, T/C (second compound 1 µM, first compound 1 µM): 12.1% | viability, T/C (second compound 3.16 µM, first compound 0.00316 µM): 51.1% | viability, T/C (second compound 3.16 µM, first compound 0.01 µM): 21.3% | viability, T/C (second compound 3.16 µM, first compound 0.0316 µM): 23.7% | viability, T/C (second compound 3.16 µM, first compound 0.1 µM): 21.4% | viability, T/C (second compound 3.16 µM, first compound 0.316 µM): 18.5% | viability, T/C (second compound 3.16 µM, first compound 1 µM): 12.1% | viability, T/C (second compound 10 µM, first compound 0.00316 µM): 46.5% | viability, T/C (second compound 10 µM, first compound 0.01 µM): 22.1% | viability, T/C (second compound 10 µM, first compound 0.0316 µM): 25.6% | viability, T/C (second compound 10 µM, first compound 0.1 µM): 24.6% | viability, T/C (second compound 10 µM, first compound 0.316 µM): 19.9% | viability, T/C (second compound 10 µM, first compound 1 µM): 12.6%

NS(=O)(=O)OCC1CC(n2ccc3c(NC4CCc5ccccc54)ncnc32)CC1O (stereo not given) + NC1CCC(NC2CC2c2ccccc2)CC1
IC50 (second compound 0.1 µM): 17.1 nM | IC50 (second compound 0.316 µM): 17 nM | IC50 (second compound 1 µM): 14.9 nM | IC50 (second compound 3.16 µM): 10.9 nM | IC50 (second compound 10 µM): < 9.49 nM | viability, T/C [1]: 58.9% | viability, T/C [2]: 36% | viability, T/C [3]: 40.5% | viability, T/C [4]: 27.8% | viability, T/C [5]: 15.8% | viability, T/C [6]: 8.88% | viability, T/C [7]: 58.9% | viability, T/C [8]: 36.4% | viability, T/C [9]: 40% | viability, T/C [10]: 21.4% | viability, T/C [11]: 13.9% | viability, T/C [12]: 9.49% | viability, T/C [13]: 56.7% | viability, T/C [14]: 36.8% | viability, T/C [15]: 37% | viability, T/C [16]: 24.7% | viability, T/C [17]: 11.8% | viability, T/C [18]: 8.79% | viability, T/C [19]: 53.5% | viability, T/C [20]: 33.4% | viability, T/C [21]: 33.1% | viability, T/C [22]: 18.8% | viability, T/C [23]: 8.53% | viability, T/C [24]: 5.87% | viability, T/C [25]: 42% | viability, T/C [26]: 22.7% | viability, T/C [27]: 17.9% | viability, T/C [28]: 8.46% | viability, T/C [29]: 3.21% | viability, T/C [30]: 1.65%

O=C(C=Cc1cccc(S(=O)(=O)Nc2ccccc2)c1)NO + NC1CCC(NC2CC2c2ccccc2)CC1
IC50 (second compound 0.1 µM): 417 nM | IC50 (second compound 0.316 µM): 421 nM | IC50 (second compound 1 µM): 430 nM | IC50 (second compound 3.16 µM): 325 nM | IC50 (second compound 10 µM): 136 nM | viability, T/C [1]: 103% | viability, T/C [2]: 105% | viability, T/C [3]: 106% | viability, T/C [4]: 69.5% | viability, T/C [5]: 1.52% | viability, T/C [6]: 0.12% | viability, T/C [7]: 106% | viability, T/C [8]: 107% | viability, T/C [9]: 108% | viability, T/C [10]: 70.2% | viability, T/C [11]: 1.56% | viability, T/C [12]: 0.11% | viability, T/C [13]: 106% | viability, T/C [14]: 107% | viability, T/C [15]: 105% | viability, T/C [16]: 72% | viability, T/C [17]: 1.58% | viability, T/C [18]: 0.93% | viability, T/C [19]: 101% | viability, T/C [20]: 99.8% | viability, T/C [21]: 97.4% | viability, T/C [22]: 53.7% | viability, T/C [23]: 1.85% | viability, T/C [24]: 0.87% | viability, T/C [25]: 65.4% | viability, T/C [26]: 59.1% | viability, T/C [27]: 61.2% | viability, T/C [28]: 25.9% | viability, T/C [29]: 1.37% | viability, T/C [30]: 0.45%
